Experimental data from PMC9880324, “Sugar perception in honeybees” (Frontiers in Physiology, 2023).

Legend:
AmGr3 = target: T1, AmGr3 (Apis mellifera, UniProt A0A7M7IGL4); experiment: two-electrode voltage clamp, Xenopus oocytes; format: cell-based; details: 160 mM sugar, pH 7.5, -80 and -140 mV; agonist
T1 construct: gene LOC725483; cDNA cloned from taste tissue, subcloned in pNBIu, cRNA expressed alone in Xenopus oocytes
T1 sequence (A0A7M7IGL4 1-474): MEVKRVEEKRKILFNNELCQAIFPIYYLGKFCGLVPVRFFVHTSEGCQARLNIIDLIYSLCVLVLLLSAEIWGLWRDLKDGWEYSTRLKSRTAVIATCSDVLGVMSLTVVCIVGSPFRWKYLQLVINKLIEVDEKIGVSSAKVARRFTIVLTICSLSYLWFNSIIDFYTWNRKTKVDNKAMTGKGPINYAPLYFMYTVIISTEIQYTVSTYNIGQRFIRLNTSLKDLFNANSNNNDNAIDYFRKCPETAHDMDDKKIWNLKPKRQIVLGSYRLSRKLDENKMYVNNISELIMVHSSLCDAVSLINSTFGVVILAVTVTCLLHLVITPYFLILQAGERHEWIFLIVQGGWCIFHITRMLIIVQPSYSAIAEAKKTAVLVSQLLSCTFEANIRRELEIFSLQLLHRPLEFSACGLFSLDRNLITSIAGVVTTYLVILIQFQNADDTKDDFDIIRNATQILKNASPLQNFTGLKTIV

AmGr2 = target: T2, AmGr2 (Apis mellifera, UniProt A0A7M7R6T6); experiment: two-electrode voltage clamp, Xenopus oocytes; format: cell-based; details: 160 mM sugar, pH 7.5, -80 mV, agonist
T2 construct: gene LOC413684; cDNA cloned from taste tissue, subcloned in pNBIu, cRNA expressed alone in Xenopus oocytes; homomer
T2 sequence (A0A7M7R6T6 1-470): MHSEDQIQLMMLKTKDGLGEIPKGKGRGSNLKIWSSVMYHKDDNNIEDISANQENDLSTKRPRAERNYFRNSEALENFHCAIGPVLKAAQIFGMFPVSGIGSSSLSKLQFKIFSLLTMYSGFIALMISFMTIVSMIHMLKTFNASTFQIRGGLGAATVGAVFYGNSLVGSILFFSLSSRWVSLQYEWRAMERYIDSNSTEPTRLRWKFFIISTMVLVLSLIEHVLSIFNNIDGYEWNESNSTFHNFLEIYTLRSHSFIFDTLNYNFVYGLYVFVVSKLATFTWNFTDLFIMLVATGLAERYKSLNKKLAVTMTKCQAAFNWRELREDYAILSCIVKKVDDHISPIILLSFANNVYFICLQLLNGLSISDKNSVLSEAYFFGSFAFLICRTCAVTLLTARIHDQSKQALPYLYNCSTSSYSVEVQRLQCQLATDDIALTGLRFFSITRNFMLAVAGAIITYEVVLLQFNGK

## OCC1(O)OC[C@@H](O)[C@@H](O)[C@@H]1O (stereo partly drawn) [fructose]
AmGr3
  two-electrode voltage clamp, Xenopus oocytes: The sole expression of AmGr3 in oocytes revealed only fructose-induced current responses

## OC[C@H]1OC(O)[C@H](O)[C@@H](O)[C@@H]1O (stereo partly drawn) [glucose]
AmGr2; transient microscopic inward current
  two-electrode voltage clamp, Xenopus oocytes: AmGr2-expression revealed transient inward currents during glucose application

## OC[C@H]1O[C@@](CO)(O[C@H]2O[C@H](CO)[C@@H](O)[C@H](O)[C@H]2O)[C@@H](O)[C@@H]1O [sucrose]
AmGr2; microscopic inward current
  two-electrode voltage clamp, Xenopus oocytes: Sustained inward currents could only be generated by application of sucrose
